# Laboratory results published in US4751295A, “Cephalosporin derivatives” (Bristol-Myers Company, priority 1986, dated 1988).
# Where a name gives a salt, the structure may show the parent alone. Read-outs that look alike come from different tables or passages of the source.
# Experiments:
# [1] = blood levels upon intramuscular administration to mice; format: in vivo; details: mouse, im, 20 mg/kg
# Protocol: Table 2, below, gives the Protective Dose50 (PD50) in mice for a number of the compounds of Formula I against selected microorganisms. Table 3 gives blood levels of various compounds of Formula I upon intramuscular administration of the test compounds to mice at a dosage of 20 mg/kg.
# [2] = tested on: Penicillinsensitive S. aureus (5 strains); test: MIC, two-fold serial agar dilution, group (G+)-Ia; format: cell-based; details: for MIC: Staphylococcus aureus, read-out: Geometric Mean of MIC, (G+)-Ia
# Protocol: (§1) In the primary evaluation of the compounds of this invention, the Minimum Inhibitory Concentrations (MIC's) of the compounds were determined by the two-fold serial agar dilution method in Mueller-Hinton agar against 32 strains of test organisms in six groups.
# (G+)Ia: Penicillinsensitive S. aureus (5 strains)
# [3] = tested on: Penicillinresistant S. aureus (5 strains); test: MIC, two-fold serial agar dilution, group (G+)-Ib; format: cell-based; details: Mueller-Hinton agar, 5 strains; for MIC: Staphylococcus aureus, read-out: Geometric Mean of MIC, (G+)-Ib
# Protocol: as §1
# (G+)Ib: Penicillinresistant S. aureus (5 strains)
# [4] = tested on: Cephalothinsensitive E. coli (2 strains), Kl. pneumoniae (1 strain) and Pr. mirabilis (2 strains); test: MIC, two-fold serial agar dilution, group (G-)-Ia; format: cell-based; details: 5 strains
# Protocol: as §1
# (G+)Ia: Cephalothinsensitive E. coli (2 strains), Kl. pneumoniae (1
# strain) and Pr. mirabilis (2 strains)
# [5] = tested on: Cephalothinresistant E. coli (3 strains) and Kl. pneumoniae (2 strains); test: MIC, two-fold serial agar dilution, group (G-)-Ib; format: cell-based; details: 5 strains; for MIC: Escherichia coli, read-out: Geometric Mean of MIC, (G-)-Ib, Mueller-Hinton agar; for Geometric Mean of MIC, (G-)-Ib: Mueller-Hinton agar
# Protocol: as §1
# (G-)Ib: Cephalothinresistant E. coli (3 strains) and Kl. pneumoniae (2
# [6] = tested on: M. morganii (1 strain), Ent. cloacae (2 strains) and Ser. marcescens (2 strains); test: MIC, two-fold serial agar dilution, group (G-)-II; format: cell-based; details: Mueller-Hinton agar, 5 strains; for MIC: read-out: Geometric Mean of MIC, (G-)-II
# Protocol: as §1
# (G-)II: M. morganii (1 strain), Ent. cloacae (2 strains) and Ser.
# [7] = tested on: Ps. aeruginosa (7 strains); test: MIC, two-fold serial agar dilution, group (G-)-III; format: cell-based; details: Mueller-Hinton agar; for MIC: Pseudomonas aeruginosa, read-out: Geometric Mean of MIC, (G-)-III
# Protocol: as §1
# (G-)III: Ps. aeruginosa (7 strains)
# [8] = Mueller-Hinton agar, read-out: Geometric Mean of MIC, (G-)-Ia
compound,measurement,setting,value
"CON=C(C(=O)NC1C(=O)N2C(C(=O)[O-])=C(C=CC[N+](C)(C)C)CS[C@H]12)c1nsc(N)n1 (stereo partly drawn) [Compound I-1D, 7-[2-(5-Amino-1,2,4-thiadiazol-3-yl)-2-methoxyiminoacetamido]-3-(3-trimethylammonio-1-propen-1-yl)-3-cephem-4-carboxylate]",AUC,[1],11 µg·h/mL
same,Cmax,[1],20 µg/mL
same,half-life,[1],19 min
"CON=C(C(=O)NC1C(=O)N2C(C(=O)[O-])=C(/C=C/C[n+]3cccc(N)c3)CSC12)c1nsc(N)n1 (stereo not drawn) [Compound I-1E, 7-[2-(5-Amino-1,2,4-thiadiazol-3-yl)-2-methoxyiminoacetamido]-3-[3-(3-aminopyridinio)-1-propen-1-yl]-3-cephem-4-carboxylate]",MIC,[2],0.2 mg/L
same,MIC,[3],0.4 mg/L
same,MIC,[4]; [8],0.0094 mg/L
same,MIC,[5],0.029 mg/L
same,MIC,[6],0.1 mg/L
same,MIC,[7],1.4 mg/L
"CON=C(C(=O)NC1C(=O)N2C(C(=O)[O-])=C(/C=C/C[n+]3cccc(NC=O)c3)CSC12)c1nsc(N)n1 (stereo not drawn) [Compound I-1F, 7-[2-(5-Amino-1,2,4-thiadiazol-3-yl)-2-methoxyiminoacetamido]-3-[3-(3-formylaminopyridinio)-1-propen-1-yl]-3-cephem-4-carboxylate]",MIC,"[2]; Mueller-Hinton agar, 5 strains",0.15 mg/L
same,MIC,[3],0.4 mg/L
same,MIC,[4]; [8],0.0094 mg/L
same,MIC,[5],0.033 mg/L
same,MIC,[6],0.099 mg/L
same,MIC,[7],1.2 mg/L
"CON=C(C(=O)NC1C(=O)N2C(C(=O)[O-])=C(/C=C/C[n+]3cccc(CN)c3)CSC12)c1nsc(N)n1 (stereo not drawn) [Compound I-1I, 7-[2-(5-Amino-1,2,4-thiadiazol-3-yl)-2-methoxyiminoacetamido]-3-[3-(3-aminomethylpyridinio)-1-propen-1-yl]-3-cephem-4-carboxylate]",MIC,"[2]; Mueller-Hinton agar, 5 strains",0.8 mg/L
same,MIC,[3],1.6 mg/L
same,MIC,[4]; [8],0.1 mg/L
same,MIC,[5],0.2 mg/L
same,MIC,[6],0.69 mg/L
same,MIC,[7],3.1 mg/L
"CON=C(C(=O)NC1C(=O)N2C(C(=O)[O-])=C(/C=C/C[n+]3ccc(CO)cc3)CSC12)c1nsc(N)n1 (stereo not drawn) [Compound I-1L, 7-[2-(5-Amino-1,2,4-thiadiazol-3-yl)-2-methoxyiminoacetamido]-3-[3-(4-hydroxymethylpyridinio)-1-propen-1-yl]-3-cephem-4-carboxylate]",MIC,"[2]; Mueller-Hinton agar, 5 strains",0.26 mg/L
same,MIC,[3],0.61 mg/L
same,MIC,[4]; [8],0.029 mg/L
same,MIC,[5],0.088 mg/L
same,MIC,[6],0.15 mg/L
same,MIC,[7],2.6 mg/L
"CON=C(C(=O)NC1C(=O)N2C(C(=O)[O-])=C(/C=C/C[n+]3cccc(CC(=O)O)c3)CSC12)c1nsc(N)n1 (stereo not drawn) [Compound I-1P, 7-[2-(5-Amino-1,2,4-thiadiazol-3-yl)-2-methoxyiminoacetamido]-3-[3-(3-carboxymethylpyridinio)-1-propenyl]-3-cephem-4-carboxylate]",MIC,"[2]; Mueller-Hinton agar, 5 strains",0.8 mg/L
same,MIC,[3],1.6 mg/L
same,MIC,[4]; [8],0.013 mg/L
same,MIC,[5],0.087 mg/L
same,MIC,[6],0.34 mg/L
same,MIC,[7],14 mg/L
"CON=C(C(=O)NC1C(=O)N2C(C(=O)[O-])=C(/C=C/C[n+]3ccc(SCC(=O)O)cc3)CSC12)c1nsc(N)n1 (stereo not drawn) [Compound I-1Q, 7-[2-(5-Amino-1,2,4-thiadiazol-3-yl)-2-methoxyiminoacetamido]-3-[3-(4-carboxymethylthiopyridinio)-1-propenyl]-3-cephem-4-carboxylate]",MIC,"[2]; Mueller-Hinton agar, 5 strains",0.7 mg/L
same,MIC,[3],0.92 mg/L
same,MIC,[4]; [8],0.0095 mg/L
same,MIC,[5],0.044 mg/L
same,MIC,[6],0.23 mg/L
same,MIC,[7],14 mg/L
"CCON=C(C(=O)NC1C(=O)N2C(C(=O)[O-])=C(/C=C/C[n+]3ccc(C(N)=O)cc3)CSC12)c1nsc(N)n1 (stereo not drawn) [Compound I-2H, 7-[2-(5-Amino-1,2,4-thiadiazol-3-yl)-2-ethoxyiminoacetamido]-3-[3-(4-carbamoylpyridinio)-1-propen-1-yl]-3-cephem-4-carboxylate]",MIC,[2],0.2 mg/L
same,MIC,[3],0.4 mg/L
same,MIC,[4]; [8],0.014 mg/L
same,MIC,[5],0.057 mg/L
same,MIC,[6],0.15 mg/L
same,MIC,[7],1.4 mg/L
"C=CCON=C(C(=O)NC1C(=O)N2C(C(=O)[O-])=C(/C=C/C[n+]3ccc(C(N)=O)cc3)CSC12)c1nsc(N)n1 (stereo not drawn) [Compound I-3H, 7-[2-(Amino-1,2,4-thiadiazol-3-yl)-2-(propen-3-yloxyimino)acetamido]-3-[3-(4-carbamoylpyridinio)-1-propenyl]-3-cephem-4-carboxylate]",MIC,"[2]; Mueller-Hinton agar, 5 strains",0.23 mg/L
same,MIC,[3],0.4 mg/L
same,MIC,[4]; [8],0.057 mg/L
same,MIC,[5],0.1 mg/L
same,MIC,[6],0.52 mg/L
same,MIC,[7],1.9 mg/L
same,AUC,[1],25 µg·h/mL
same,Cmax,[1],19 µg/mL
same,half-life,[1],47 min
"CON=C(C(=O)NC1C(=O)N2C(C(=O)[O-])=C(C=CC[N+]3(C)CCCC3)CSC12)c1nsc(N)n1 (stereo not drawn) [I-1A E/Z = 1/1, 7-[2-(5-Amino-1,2,4-thiadiazol-3-yl)-2-methoxyiminoacetamido]-3-[3-(1-methylpyrrolidinio)-1-propen-1-yl]-3-cephem-4-carboxylate]",MIC,"[2]; Mueller-Hinton agar, 5 strains",0.26 mg/L
same,MIC,[3],0.7 mg/L
same,MIC,[4]; [8],0.05 mg/L
same,"Geometric Mean of MIC, (G-)-Ib",[5],0.15 mg/L
same,MIC,[6],0.23 mg/L
same,MIC,[7],2.4 mg/L
"CON=C(C(=O)NC1C(=O)N2C(C(=O)[O-])=C(C=CC[N+]3(C)CCCC3)CSC12)c1nsc(N)n1 (stereo not drawn) [I-1A E/Z = 7/1, 7-[2-(5-Amino-1,2,4-thiadiazol-3-yl)-2-methoxyiminoacetamido]-3-[3-(1-methylpyrrolidinio)-1-propenyl]-3-cephem-4-carboxylate sulfate]","Geometric Mean of MIC, (G+)-Ia","[2]; Mueller-Hinton agar, 5 strains, sulfate",0.13 mg/L
same,"Geometric Mean of MIC, (G+)-Ib",[3]; sulfate,0.35 mg/L
same,"Geometric Mean of MIC, (G-)-Ia","[4]; Mueller-Hinton agar, sulfate",0.029 mg/L
same,"Geometric Mean of MIC, (G-)-Ib",[5]; sulfate,0.05 mg/L
same,"Geometric Mean of MIC, (G-)-II",[6]; sulfate,0.17 mg/L
same,"Geometric Mean of MIC, (G-)-III",[7]; sulfate,1.4 mg/L
"CON=C(C(=O)NC1C(=O)N2C(C(=O)[O-])=C(/C=C/C[n+]3ccccc3)CSC12)c1nsc(N)n1 (stereo not drawn) [I-1B E, 7-[2-(5-Amino-1,2,4-thiadiazol-3-yl)-2-methoxyiminoacetamido]-3-[3-pyridinio-1-propen-1-yl]-3-cephem-4-carboxylate]",MIC,[2],0.2 mg/L
same,MIC,[3],0.4 mg/L
same,MIC,[4]; [8],0.016 mg/L
same,MIC,[5],0.044 mg/L
same,MIC,[6],0.11 mg/L
same,MIC,[7],1.6 mg/L
"CON=C(C(=O)NC1C(=O)N2C(C(=O)[O-])=C(C=CC[N+](C)(C)C)CS[C@H]12)c1nsc(N)n1 (stereo partly drawn) [I-1D E/Z = 1/1, 7-[2-(5-Amino-1,2,4-thiadiazol-3-yl)-2-methoxyiminoacetamido]-3-(3-trimethylammonio-1-propen-1-yl)-3-cephem-4-carboxylate]","Geometric Mean of MIC, (G+)-Ia","[2]; Mueller-Hinton agar, 5 strains",0.61 mg/L
same,"Geometric Mean of MIC, (G+)-Ib",[3],1.4 mg/L
same,MIC,[4]; [8],0.1 mg/L
same,"Geometric Mean of MIC, (G-)-Ib",[5],0.26 mg/L
same,MIC,[6],0.46 mg/L
same,MIC,[7],2.4 mg/L
"CON=C(C(=O)NC1C(=O)N2C(C(=O)[O-])=C(C=CC[N+](C)(C)C)CS[C@H]12)c1nsc(N)n1 (stereo partly drawn) [I-1D E/Z = 10/1, 7-[2-(5-Amino-1,2,4-thiadiazol-3-yl)-2-methoxyiminoacetamido]-3-[3-trimethylammonio-1-propenyl]-3-cephem-4-carboxylate]","Geometric Mean of MIC, (G+)-Ia","[2]; Mueller-Hinton agar, 5 strains",0.30 mg/L
same,"Geometric Mean of MIC, (G+)-Ib",[3],0.53 mg/L
same,"Geometric Mean of MIC, (G-)-Ia",[4]; Mueller-Hinton agar,0.05 mg/L
same,"Geometric Mean of MIC, (G-)-Ib",[5],0.076 mg/L
same,"Geometric Mean of MIC, (G-)-II",[6],0.26 mg/L
same,"Geometric Mean of MIC, (G-)-III",[7],1.3 mg/L
"CCO/N=C(\C(=O)NC1C(=O)N2C(C(=O)[O-])=C(/C=C/C[n+]3ccc(C(=O)O)cc3)CSC12)c1nsc(N)n1 (stereo not drawn) [I-2N E, 7-[2-(5-Amino-1,2,4-thiadiazol-3-yl)-2-(Z)-ethoxyiminoacetamido]-3-[3-(4-carboxypyridinio)-1-propenyl]-3-cephem-4-carboxylate]",MIC,"[2]; Mueller-Hinton agar, 5 strains",1.2 mg/L
same,MIC,[3],2.1 mg/L
same,MIC,[4]; [8],0.016 mg/L
same,MIC,[5],0.11 mg/L
same,MIC,[6],0.35 mg/L
same,MIC,[7],4.7 mg/L
"CCO/N=C(\C(=O)NC1C(=O)N2C(C(=O)[O-])=C(/C=C\C[n+]3ccc(C(=O)O)cc3)CSC12)c1nsc(N)n1 (stereo not drawn) [I-2N Z, 7-[2-(5-Amino-1,2,4-thiadiazol-3-yl)-2-(Z)-ethoxyiminoacetamido]-3-[3-(4-carboxypyridinio)-1-propenyl]-3-cephem-4-carboxylate]",MIC,"[2]; Mueller-Hinton agar, 5 strains",1.4 mg/L
same,MIC,[3],3.1 mg/L
same,MIC,[4]; [8],0.044 mg/L
same,MIC,[5],0.15 mg/L
same,MIC,[6],0.69 mg/L
same,MIC,[7],10 mg/L
"CON=C(C(=O)NC1C(=O)N2C(C(=O)[O-])=C(C=CC[n+]3ccccc3)CSC12)c1nsc(N)n1 (stereo not drawn) [I-IB E/Z = 1/4, 7-[2-(5-Amino-1,2,4-thiadiazol-3-yl)-2-methoxyiminoacetamido]-3-[3-pyridinio-1-propen-1-yl]-3-cephem-4-carboxylate]",MIC,"[2]; Mueller-Hinton agar, 5 strains",0.35 mg/L
same,MIC,[3],0.8 mg/L
same,MIC,"[4]; read-out: Geometric Mean of MIC, (G-)-Ia, Mueller-Hinton agar",0.05 mg/L
same,MIC,[5],0.11 mg/L
same,MIC,[6],0.35 mg/L
same,MIC,[7],3.5 mg/L
